We go through 27 molecules from US10189854B2, “Substituted pyrimidine compounds” (Grünenthal GmbH, priority 2014, dated 2019).

Sequence of human PDE4B1 (Q07343 whole entry): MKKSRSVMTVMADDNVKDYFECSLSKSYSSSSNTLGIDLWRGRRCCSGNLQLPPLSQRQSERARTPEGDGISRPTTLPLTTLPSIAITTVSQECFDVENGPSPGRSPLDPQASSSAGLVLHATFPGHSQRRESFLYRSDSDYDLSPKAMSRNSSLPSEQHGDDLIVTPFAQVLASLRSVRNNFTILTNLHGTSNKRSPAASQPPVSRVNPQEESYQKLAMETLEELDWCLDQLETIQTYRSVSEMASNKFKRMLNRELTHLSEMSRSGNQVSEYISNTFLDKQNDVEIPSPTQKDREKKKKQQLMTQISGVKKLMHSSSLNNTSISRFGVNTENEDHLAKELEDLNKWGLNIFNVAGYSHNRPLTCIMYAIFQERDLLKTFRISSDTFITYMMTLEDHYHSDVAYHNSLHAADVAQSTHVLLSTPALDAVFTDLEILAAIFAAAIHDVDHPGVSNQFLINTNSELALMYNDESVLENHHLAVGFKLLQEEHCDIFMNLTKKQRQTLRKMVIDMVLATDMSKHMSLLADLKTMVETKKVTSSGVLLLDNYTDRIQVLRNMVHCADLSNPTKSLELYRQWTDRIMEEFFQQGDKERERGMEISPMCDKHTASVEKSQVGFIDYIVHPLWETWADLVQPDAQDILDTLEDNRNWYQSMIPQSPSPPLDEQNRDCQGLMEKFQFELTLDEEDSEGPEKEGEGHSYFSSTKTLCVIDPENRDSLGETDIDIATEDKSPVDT

The experiment concerns the target human PDE4B1 (Homo sapiens (Human), UniProt Q07343). Put plainly: TR-FRET assay using the LANCE Ultra cAMP kit to determine the activity of hPDE4B1. The experiment is classed as biochemical. As to conditions: IC50 inhibition of PDE4B, mean. The procedure, abridged: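 Recombinant human PDE4B1 (Sf9-expressed, 0.96 U) incubated with compound and 500 nM cAMP in 50 mM Tris-HCl, 50 mM MgCl2, 5 mM DTT, pH 8.5, 30 min at room temperature. Residual cAMP read by TR-FRET (665/620 nm ratio) after IBMX stop. IC50 from ten-concentration curves as % inhibition of control.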
(Time-resolved FRET reads energy transfer from a long-lived donor to a nearby acceptor.)
In the case of `CN(C)C(=O)c1ccc2c(c1)N(c1ncc(-c3ccccn3)cn1)CC21CC1` [Compound 306, N,N-Dimethyl-1-(5-pyridin-2-yl-pyrimidin-2-yl)-spiro[1,2-dihydro-indole-3,1′-cyclopropane]-6-carboxylic acid amide], the IC50 (in general, the concentration that inhibits the measured activity by half) is below 0.1 µM. With `Cc1cccc(-c2cnc(N3CC4(CC4)c4ccc(C(=O)N(C)CC(N)=O)cc43)nc2)n1` [Compound 307, N-(Carbamoyl-methyl)-N-methyl-1-[5-(6-methyl-pyridin-2-yl)-pyrimidin-2-yl]-spiro[1,2-dihydro-indole-3,1′-cyclopropane]-6-carboxylic acid amide] the figure was below 0.1 µM; with `CCc1ccnc(-c2cnc(N3CC4(CC4)c4ccc(C(=O)N(C)CC(N)=O)cc43)nc2)c1` [Compound 308, N-(Carbamoyl-methyl)-1-[5-(4-ethyl-pyridin-2-yl)-pyrimidin-2-yl]-N-methyl-spiro[1,2-dihydro-indole-3,1′-cyclopropane]-6-carboxylic acid amide], below 0.1 µM; with `CN(CCO)C(=O)c1ccc2c(c1)N(c1ncc(-c3cc(C(C)(C)O)ccc3F)cn1)CC21CC1` [Compound 309, 1-[5-[2-Fluoro-5-(1-hydroxy-1-methyl-ethyl)-phenyl]-pyrimidin-2-yl]-N-(2-hydroxy-ethyl)-N-methyl-spiro[1,2-dihydro-indole-3,1′-cyclopropane]-6-carboxylic acid amide], below 0.1 µM. With `O=C(c1ccc2c(c1)N(c1ncc(-c3ccccc3F)cn1)CC21CC1)N1CC[C@H](CO)C1` [Compound 310, [1-[5-(2-Fluorophenyl)-pyrimidin-2-yl]-spiro[1,2-dihydro-indole-3,1′-cyclopropane]-6-yl]-[(3S)-3-(hydroxymethyl)-pyrrolidin-1-yl]-methanone] the figure was below 0.1 µM; with `O=C(c1ccc2c(c1)N(c1ncc(-c3ccccc3F)cn1)CC21CC1)N1CC[C@@H](CO)C1` [Compound 311, [1-[5-(2-Fluorophenyl)-pyrimidin-2-yl]-spiro[1,2-dihydro-indole-3,1′-cyclopropane]-6-yl]-[(3R)-3-(hydroxymethyl)-pyrrolidin-1-yl]-methanone], below 0.1 µM; with `CC(O)c1ccc(F)c(-c2cnc(N3CC4(CC4)c4ccc(C(=O)N(C)CCO)cc43)nc2)c1` (stereo not drawn) [Compound 312, 1-[5-[2-Fluoro-5-(1-hydroxy-ethyl)-phenyl]-pyrimidin-2-yl]-N-(2-hydroxy-ethyl)-N-methyl-spiro[1,2-dihydro-indole-3,1′-cyclopropane]-6-carboxylic acid amide], below 0.1 µM. Molecule `O=C(c1ccc2c(c1)N(c1ncc(-c3ccccc3F)cn1)CC21CC1)N1CCC[C@@H](CO)C1` [Compound 313, [1-[5-(2-Fluorophenyl)-pyrimidin-2-yl]-spiro[1,2-dihydro-indole-3,1′-cyclopropane]-6-yl]-[(3R)-3-(hydroxymethyl)-piperidin-1-l]-methanone] displayed an IC50 below 0.1 µM.

On to `CN(CCO)C(=O)c1ccc2c(c1)N(c1ncc(-c3cc(C(C)(C)O)ccn3)cn1)CC21CC1` [Compound 314, N-(2-Hydroxy-ethyl)-1-[5-[4-(1-hydroxy-1-methyl-ethyl)-pyridin-2-yl]-pyrimidin-2-yl]-N-methyl-spiro[1,2-dihydro-indole-3,1′-cyclopropane]-6-carboxylic acid amide], for which the IC50 was below 0.1 µM.

In the case of `CN(CCO)C(=O)c1ccc2c(c1)N(c1ncc(-c3cc(N4CCCC4)ccn3)cn1)CC21CC1` [Compound 315, N-(2-Hydroxy-ethyl)-N-methyl-1-[5-(4-pyrrolidin-1-yl-pyridin-2-yl)-pyrimidin-2-yl]-spiro[1,2-dihydro-indole-3,1′-cyclopropane]-6-carboxylic acid amide], the IC50 is below 0.1 µM. As to `CCNc1ccnc(-c2cnc(N3CC4(CC4)c4ccc(C(=O)N(C)CCO)cc43)nc2)c1` [Compound 316, 1-[5-(4-Ethylamino-pyridin-2-yl)-pyrimidin-2-yl]-N-(2-hydroxy-ethyl)-N-methyl-spiro[1,2-dihydro-indole-3,1′-cyclopropane]-6-carboxylic acid amide], the IC50 was below 0.1 µM. Turning to `O=C(c1ccc2c(c1)N(c1ncc(-c3ccccc3F)cn1)CC21CC1)N1CCC[C@H](CO)C1` [Compound 317, [1-[5-(2-Fluorophenyl)-pyrimidin-2-yl]-spiro[1,2-dihydro-indole-3,1′-cyclopropane]-6-yl]-[(3S)-3-(hydroxymethyl)-piperidin-1-yl]-methanone], the IC50 is below 0.1 µM.

The molecule `CC(O)c1ccnc(-c2cnc(N3CC4(CC4)c4ccc(C(=O)N(C)CCO)cc43)nc2)c1` (stereo not drawn) [Compound 318, N-(2-Hydroxy-ethyl)-1-[5-[4-(1-hydroxy-ethyl)-pyridin-2-yl]-pyrimidin-2-yl]-N-methyl-spiro[1,2-dihydro-indole-3,1′-cyclopropane]-6-carboxylic acid amide] displayed an IC50 below 0.1 µM.

Regarding `CN(CCO)C(=O)c1ccc2c(c1)N(c1ncc(-c3cc(NCC4CC4)ccn3)cn1)CC21CC1` [Compound 319, 1-[5-[4-(Cyclopropyl-methylamino)-pyridin-2-yl]-pyrimidin-2-yl]-N-(2-hydroxy-ethyl)-N-methyl-spiro[1,2-dihydro-indole-3,1′-cyclopropane]-6-carboxylic acid amide], the IC50 was below 0.1 µM. Take `CN(CC(N)=O)C(=O)c1ccc2c(c1)N(c1ncc(-c3ccccn3)cn1)CC21CC1` [Compound 320, N-(2-amino-2-oxoethyl)-N-methyl-1′-(5-(pyridin-2-yl)pyrimidin-2-yl)spiro[cyclopropane-1,3′-indoline]-6′-carboxamide]: the IC50 was below 0.1 µM.

`COc1ccnc(-c2cnc(N3CC4(CC4)c4ccc(C(=O)N(C)CC(N)=O)cc43)nc2)c1` [Compound 321, N-(Carbamoyl-methyl)-1-[5-(4-methoxy-pyridin-2-yl)-pyrimidin-2-yl]-N-methyl-spiro[1,2-dihydro-indole-3,1′-cyclopropane]-6-carboxylic acid amide] had an IC50 below 0.1 µM. As to `CC(O)c1cccc(-c2cnc(N3CC4(CC4)c4ccc(C(=O)N(C)CCO)cc43)nc2)c1` (stereo not drawn) [Compound 322, N-(2-Hydroxy-ethyl)-1-[5-[3-(1-hydroxy-ethyl)-phenyl]-pyrimidin-2-yl]-N-methyl-spiro[1,2-dihydro-indole-3,1′-cyclopropane]-6-carboxylic acid amide], the IC50 is below 0.1 µM. `CN(CCO)C(=O)c1ccc2c(c1)N(c1ncc(-c3cn(C)cn3)cn1)CC21CC1` [Compound 323, N-(2-Hydroxy-ethyl)-N-methyl-1-[5-(1-methyl-1H-imidazol-4-yl)-pyrimidin-2-yl]-spiro[1,2-dihydro-indole-3,1′-cyclopropane]-6-carboxylic acid amide] showed an IC50 below 0.1 µM. The molecule `Cc1nc(-c2cnc(N3CC4(CC4)c4ccc(C(=O)N(C)CCO)cc43)nc2)cs1` [Compound 324, N-(2-Hydroxy-ethyl)-N-methyl-1-[5-(2-methyl-thiazol-4-yl)-pyrimidin-2-yl]-spiro[1,2-dihydro-indole-3,1′-cyclopropane]-6-carboxylic acid amide] registered an IC50 below 0.1 µM. Molecule `CCc1nc(-c2cnc(N3CC4(CC4)c4ccc(C(=O)N(C)CCO)cc43)nc2)cs1` [Compound 325, 1-[5-(2-Ethyl-thiazol-4-yl)-pyrimidin-2-yl]-N-(2-hydroxy-ethyl)-N-methyl-spiro[1,2-dihydro-indole-3,1′-cyclopropane]-6-carboxylic acid amide] came in with an IC50 below 0.1 µM. In the case of `CN(CCO)C(=O)c1ccc2c(c1)N(c1ncc(-c3csc(CO)n3)cn1)CC21CC1` [Compound 326, N-(2-Hydroxy-ethyl)-1-[5-[2-(hydroxymethyl)-thiazol-4-yl]-pyrimidin-2-yl]-N-methyl-spiro[1,2-dihydro-indole-3,1′-cyclopropane]-6-carboxylic acid amide] it was below 0.1 µM; in that of `CN(CCO)C(=O)c1ccc2c(c1)N(c1ncc(-c3csc(C(N)=O)n3)cn1)CC21CC1` [Compound 327, 4-[2-[6-[(2-Hydroxy-ethyl)-methyl-carbamoyl]-spiro[1,2-dihydro-indole-3,1′-cyclopropane]-1-yl]-pyrimidin-5-yl]-thiazole-2-carboxylic acid amide], below 0.1 µM.

Take `COc1cc(OC)nc(-c2cnc(N3CC4(CC4)c4ccc(C(=O)N(C)CCO)cc43)nc2)c1` [Compound 328, 1-[5-(4,6-Dimethoxy-pyridin-2-yl)-pyrimidin-2-yl]-N-(2-hydroxy-ethyl)-N-methyl-spiro[1,2-dihydro-indole-3,1′-cyclopropane]-6-carboxylic acid amide]: the IC50 was below 0.1 µM.

For `N[C@@H]1CCN(C(=O)c2ccc3c(c2)N(c2ncc(-c4ccccn4)cn2)CC32CC2)C1` [Compound 329, [(3R)-3-Amino-pyrrolidin-1-yl]-[1-(5-pyridin-2-yl-pyrimidin-2-yl)-spiro[1,2-dihydro-indole-3,1′-cyclopropane]-6-yl]-methanone], the IC50 was below 0.1 µM.

The molecule `COc1ccnc(-c2cnc(N3CC4(CC4)c4ccc(C(=O)N5CC[C@@H](N)C5)cc43)nc2)c1` [Compound 330, [(3R)-3-Amino-pyrrolidin-1-yl]-[1-[5-(4-methoxy-pyridin-2-yl)-pyrimidin-2-yl]-spiro[1,2-dihydro-indole-3,1′-cyclopropane]-6-yl]-methanone] returned an IC50 below 0.1 µM. As for `CC(C)c1ccnc(-c2cnc(N3CC4(CC4)c4ccc(C(=O)N5CC[C@@H](N)C5)cc43)nc2)c1` [Compound 331, [(3R)-3-Amino-pyrrolidin-1-yl]-[1-[5-(4-isopropyl-pyridin-2-yl)-pyrimidin-2-yl]-spiro[1,2-dihydro-indole-3,1′-cyclopropane]-6-yl]-methanone], the IC50 is below 0.1 µM. With `O=C(c1ccc2c(c1)N(c1ncc(-c3cc(C4CC4)ccn3)cn1)CC21CC1)N1CCC[C@H](CO)C1` [Compound 332, [1-[5-(4-Cyclopropyl-pyridin-2-yl)-pyrimidin-2-yl]-spiro[1,2-dihydro-indole-3,1′-cyclopropane]-6-yl]-[(3S)-3-(hydroxymethyl)-piperidin-1-yl]-methanone] the figure was below 0.1 µM.
